For 32 molecules, IC50 results are on record in US20090156582A1, “Pyrazole Compound” (priority 2005, published 2009).

Where only a bound is given, the exact number is not on record here.

For this test, the target named is T1, recombinant GSK3β enzyme (human GSK3β) (Homo sapiens, UniProt P49841).
T1 construct: FLAG (N); made in house; host or cells: Sf-21 insect cells, recombinant baculovirus (pFASTBAC1 / BAC-TO-BAC)
T1 sequence (P49841 whole entry): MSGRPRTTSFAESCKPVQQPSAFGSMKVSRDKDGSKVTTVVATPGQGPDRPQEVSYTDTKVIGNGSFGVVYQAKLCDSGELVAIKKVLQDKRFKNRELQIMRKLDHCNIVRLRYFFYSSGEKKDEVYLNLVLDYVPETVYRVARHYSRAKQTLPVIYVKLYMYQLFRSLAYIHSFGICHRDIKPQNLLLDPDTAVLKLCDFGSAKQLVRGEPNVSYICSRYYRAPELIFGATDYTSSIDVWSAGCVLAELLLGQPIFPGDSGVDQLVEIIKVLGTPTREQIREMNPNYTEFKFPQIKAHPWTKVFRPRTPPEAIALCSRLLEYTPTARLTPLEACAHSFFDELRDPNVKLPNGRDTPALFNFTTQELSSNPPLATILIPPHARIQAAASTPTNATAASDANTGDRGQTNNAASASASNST
Briefly: Measurement of GSK3β inhibitory activity. Conditions: glycogen synthase peptide substrate, Kinase Glo luminescence, read-out: IC50 (concentration of test compound needed for 50% inhibition of luminescent intensity), GSK3β inhibitory activity. The class given is biochemical. From the text:
Human GSK3β gene was cloned by a PCR method using a primer set:
prepared using human brain cDNA (Clontech; trade name: QUICK-Clone cDNA) as a template and in reference to the base sequence of GSK3β gene registered in GenBank under Accession Number NM_002093.
PCR was done according to the protocol attached to KOD plus DNA polymerase (Toyo Boseki Kabushiki Kaisha). The obtained PCR product was electrophoresed on agarose gel (1%), and 1.2 kb of DNA fragment including GSK3β gene was collected from the gel and then digested with restriction enzymes EcoR I and Sal I. The restriction enzyme-treated DNA was electrophoresed on agarose gel (1%). The obtained DNA fragment was collected, and ligated to the plasmid pFASTBAC1 (Invitrogen), which had been digested with restriction enzyme EcoR I and Sal I, to produce expression plasmid pFB-GSK3B. The base sequence of insertion fragment was confirmed to find that it corresponded to the objective sequence. In addition, virus stock BAC-GSK3B of recombinant Baculovirus was prepared using BAC-TO-BAC Baculovirus Expression System (Invitrogen).
Sf-21 cells (Invitrogen) were seeded on Sf-900 II SFM medium (Invitrogen)(150 ml) containing 10% fetal calf serum at 1×10^6 cells/ml, and cultured at 27° C. for 24 hr. The virus stock […] obtained above of recombinant Baculovirus was added by 150 μl to the obtained culture medium, and the cells were cultured for another 60 hr. The culture medium was centrifuged (3000 rpm, 10 min) to separate the cells, and the cells were washed once with PBS. The cells were suspended in 10 ml of cell lysis buffer (25 mM HEPES (pH 7.5), 1% Triton X, 130 mM sodium chloride, 1 mM EDTA, 1 mM Dithiothreitol, 25 mM β-glycerophosphate, Protease inhibitor Complete (Boehringer), 1 mM Sodium orthovanadate), treated 4 times using a homogenizer (POLYTRON) at 20000 rpm for 30 sec to disrupt the cells. The disrupted solution of cells was centrifuged (40000 rpm, 45 min.), and GSK3β was purified from the obtained supernatant using Anti-FLAG M2 Affinity Gel (Sigma Ltd.).
10 μl of ATP solution (2.5 μM ATP) was added to the obtained mixture, and the mixture was reacted at room temperature for 30 min. Kinase Glo Reagent (Promega) (50 μl) was added to the reaction solution to stop the reaction. After reaction at room temperature for 10 min, the luminescent intensity was measured using ARVO multilabel counter (PerkinElmer Life Sciences). The concentrations of the test compounds needed for 50% inhibition of luminescent intensity (IC50 value) were calculated by PRISM 3.0 (GraphPad Software).
Background: Kinase-Glo measures the ATP left after a reaction by luminescence.
Take `O=C(COc1ccccc1)Nc1c[nH]nc1C(=O)NCc1ccccc1` [Example 101, N-benzyl-4-[(phenoxyacetyl)amino]-1H-pyrazole-3-carboxamide]: the IC50 is less than 100 nM. Consider `O=C(NCc1ccccc1)c1n[nH]cc1NC(=O)C1CCCCC1` [Example 102, N-benzyl-4-[(cyclohexylcarbonyl)amino]-1H-pyrazole-3-carboxamide], for which the IC50 is less than 100 nM. Next, `CCOCC(=O)Nc1c[nH]nc1C(=O)NCc1ccccc1` [Example 103, N-benzyl-4-[(ethoxyacetyl)amino]-1H-pyrazole-3-carboxamide]: less than 100 nM; `O=C(/C=C/c1ccccc1)Nc1c[nH]nc1C(=O)NCc1ccccc1` [Example 105, N-benzyl-4-{[(2E)-3-phenylprop-2-enoyl]amino}-1H-pyrazole-3-carboxamide]: 273 nM. For `O=C(CCc1ccccc1)Nc1c[nH]nc1C(=O)NCc1ccccc1` [Example 106, N-benyzl-4-[(3-phenylpropanoyl)amino]-1H-pyrazole-3-carboxamide] the value was 242 nM; for `O=C(Nc1c[nH]nc1C(=O)NCc1ccccc1)c1ccccc1` [Example 109, 4-(benzoylamino)-N-benzyl-1H-pyrazole-3-carboxamide], less than 100 nM. For `COc1ccc(C(=O)Nc2c[nH]nc2C(=O)NCc2ccccc2)cc1` [Example 112, N-benzyl-4-[(4-methoxybenzoyl)amino]-1H-pyrazole-3-carboxamide] the value was less than 100 nM; for `O=C(Nc1c[nH]nc1C(=O)NCc1ccccc1)c1ccc(F)cc1F` [Example 113, N-benzyl-4-[(2,4-difluorobenzoyl)amino]-1H-pyrazole-3-carboxamide], less than 100 nM; for `O=C(Nc1c[nH]nc1C(=O)NCc1ccccc1)c1ccc(Oc2ccccc2)cc1` [Example 114, N-benzyl-4-[(4-phenoxybenzoyl)amino]-1H-pyrazole-3-carboxamide], 394 nM. For `CC(=O)Nc1cccc(C(=O)Nc2c[nH]nc2C(=O)NCc2ccccc2)c1` [Example 116, 4-{[3-(acetylamino)benzoyl]amino}-N-benzyl-1H-pyrazole-3-carboxamide], the IC50 is less than 100 nM. Turning to `O=C(Nc1c[nH]nc1C(=O)NCc1ccccc1)c1ccc(OC(F)(F)F)cc1` [Example 117, N-benzyl-4-{[4-(trifluoromethoxy)benzoyl]-amino}-1H-pyrazole-3-carboxamide], the IC50 came out at 157 nM. For `O=C(Nc1c[nH]nc1C(=O)NCc1ccccc1)c1cnccn1` [Example 119, N-{3-[(benzylamino)carbonyl]-1H-pyrazol-4-yl}pyrazine-2-carboxamide] the value was less than 100 nM; for `CC(=O)Nc1c[nH]nc1C(=O)NCCc1ccccc1` [Example 120, 4-acetylamino-N-(2-phenylethyl)-1H-pyrazole-3-carboxamide], less than 100 nM; for `O=C(CC1CCCC1)Nc1c[nH]nc1C(=O)NCCc1ccccc1` [Example 121, 4-[(cyclopentylacetyl)amino]-N-(2-phenylethyl)-1H-pyrazole-3-carboxamide], less than 100 nM. Next, `O=C(COc1ccccc1)Nc1c[nH]nc1C(=O)NCCc1ccccc1` [Example 123, 4-[(phenoxyacetyl)amino]-N-(2-phenylethyl)-1H-pyrazole-3-carboxamide]: less than 100 nM; `O=C(NCCc1ccccc1)c1n[nH]cc1NC(=O)C1CCCCC1` [Example 124, 4-[(cyclohexylcarbonyl)amino]-N-(2-phenylethyl)-1H-pyrazole-3-carboxamide]: less than 100 nM; `CCOCC(=O)Nc1c[nH]nc1C(=O)NCCc1ccccc1` [Example 125, 4-[(ethoxyacetyl)amino]-N-(2-phenylethyl)-1H-pyrazole-3-carboxamide]: less than 100 nM. `O=C(/C=C/c1ccccc1)Nc1c[nH]nc1C(=O)NCCc1ccccc1` [Example 127, N-(2-phenylethyl)-4-{[(2E)-3-phenylprop-2-enoyl]amino}-1H-pyrazole-3-carboxamide]: the IC50 was less than 100 nM. Next, `O=C(CCc1ccccc1)Nc1c[nH]nc1C(=O)NCCc1ccccc1` [Example 128, N-(2-phenylethyl)-4-[(3-phenylpropanoyl)amino]-1H-pyrazole-3-carboxamide]: less than 100 nM; `COc1ccccc1CC(=O)Nc1c[nH]nc1C(=O)NCCc1ccccc1` [Example 129, 4-{[(2-methoxyphenyl)acetyl]amino}-N-(2-phenylethyl)-1H-pyrazole-3-carboxamide]: 157 nM. Next, `O=C(Cc1c[nH]c2ccccc12)Nc1c[nH]nc1C(=O)NCCc1ccccc1` [Example 130, 4-[(1H-indol-3-ylacetyl)amino]-N-(2-phenylethyl)-1H-pyrazole-3-carboxamide]: 128 nM; `O=C(Nc1c[nH]nc1C(=O)NCCc1ccccc1)c1ccccc1` [Example 131, 4-benzoylamino-N-(2-phenylethyl)-1H-pyrazole-3-carboxamide]: less than 100 nM; `O=C(Nc1c[nH]nc1C(=O)NCCc1ccccc1)c1ccc(C(F)(F)F)cc1` [Example 132, N-(2-phenylethyl)-4-{[4-(trifluoromethyl)ben-zoyl]-amino}-1H-pyrazole-3-carboxamide]: 101 nM. Next, `COc1ccc(C(=O)Nc2c[nH]nc2C(=O)NCCc2ccccc2)cc1` [Example 133, 4-[(4-methoxybenoyl)amino]-N-(2-phenylethyl)-1H-pyrazole-3-carboxamide]: less than 100 nM; `O=C(Nc1c[nH]nc1C(=O)NCCc1ccccc1)c1ccc(F)cc1F` [Example 134, 4-[(2,4-difluorobenzoyl)amino]-N-(2-phenylethyl)-1H-pyrazole-3-carboxamide]: less than 100 nM; `O=C(Nc1c[nH]nc1C(=O)NCCc1ccccc1)c1ccc(Oc2ccccc2)cc1` [Example 135, 4-[(4-phenoxybenzoyl)amino]-N-(2-phenylethyl)-1H-pyrazole-3-carboxamide]: less than 100 nM. Turning to `CCCN(CCC)S(=O)(=O)c1ccc(C(=O)Nc2c[nH]nc2C(=O)NCCc2ccccc2)cc1` [Example 136, 4-({4-[(dipropylamino)sulfonyl]benzoyl}amino)-N-(2-phenylethyl)-1H-pyrazole-3-carboxamide], the IC50 stood at 485 nM. Regarding `CC(=O)Nc1cccc(C(=O)Nc2c[nH]nc2C(=O)NCCc2ccccc2)c1` [Example 137, 4-{[3-(acetylamino)benzoyl]amino}-N-(2-phenylethyl)-1H-pyrazole-3-carboxamide], the IC50 is less than 100 nM. For `O=C(Nc1c[nH]nc1C(=O)NCCc1ccccc1)c1ccc(OC(F)(F)F)cc1` [Example 138, N-(2-phenylethyl)-4-{[4-(trifluoromethoxy)-benzoyl]amino}-1H-pyrazole-3-carboxamide], the IC50 was less than 100 nM. Next, `O=C(Nc1c[nH]nc1C(=O)NCCc1ccccc1)c1cnccn1` [Example 141]: less than 100 nM. Next, `O=C(CC1CCCC1)Nc1c[nH]nc1C(=O)NCc1ccco1` [Example 143, 4-[(cyclopentylacetyl)amino]-N-(2-furylmethyl)-1H-pyrazole-3-carboxamide]: 155 nM; `O=C(COc1ccccc1)Nc1c[nH]nc1C(=O)NCc1ccco1` [Example 145, N-(2-furylmethyl)-4-[(phenoxyacetyl)amino]-1H-pyrazole-3-carboxamide]: less than 100 nM.
